Results taken from PMC10764862, “Structural basis and selectivity of sulfatinib binding to FGFR and CSF-1R” (Communications Chemistry, 2024).
Residue numbers refer to the chain shown, from its start. Like-named read-outs stand apart in the source and are kept apart here.

Legend:
FGFR4 [1] = test system: FGFR4; design: method as in PMID 28665128; conditions: cited from earlier work
FGFR3 [2] = test system: FGFR3; design: method as in PMID 28665128; conditions: cited from earlier work
CSF-1R [3] = test system: CSF-1R; design: method as in PMID 28665128; conditions: cited from earlier work
CSF-1R^T663I = biological target: T1, CSF-1R^T663I (Homo sapiens, UniProt P07333, C667T/C830S/C907T/DEL696-741/T663I); test: Kinase inhibition assay (ADP-Glo), CSF-1R T663I gatekeeper mutant; type: biochemical; conditions: read-out: Kinase inhibitory activity CSF-1R^T663I IC50
T1 sequence (P07333 with tags, fused parts or gaps T663I/C667T/DEL696-741/C830S/C907T): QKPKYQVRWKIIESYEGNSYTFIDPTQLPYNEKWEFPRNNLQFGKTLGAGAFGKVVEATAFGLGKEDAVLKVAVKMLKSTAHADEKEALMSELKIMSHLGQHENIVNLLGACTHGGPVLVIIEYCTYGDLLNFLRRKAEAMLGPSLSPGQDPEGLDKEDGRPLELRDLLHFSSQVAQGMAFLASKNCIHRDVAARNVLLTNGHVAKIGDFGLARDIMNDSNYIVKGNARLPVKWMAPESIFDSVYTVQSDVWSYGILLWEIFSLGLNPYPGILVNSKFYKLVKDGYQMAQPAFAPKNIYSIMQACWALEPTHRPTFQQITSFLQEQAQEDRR
Description: (§1) Wild-type CSF-1R (residues 542–919, △696–741, C677T, C830S, C907T) and CSF-1R^T663I carrying an N-terminal 6×His tag was cloned into a pFastBac expression vector, and was expressed in SF9 cells using the Invitrogen Bac-to-Bac Baculovirus Expression System[41]. For crystallization, CSF-1R was co-expressed with N-terminal GST-tagged YOPH to induce non-phosphorylated proteins. The harvested cell pellets were lysed by sonication in lysis buffer consisting of 40 mM K-phosphate, pH 8.0, 200 mM NaCl, 0.5 mM PMSF, and protease inhibitor mixture (EDTA-free, Roche). After centrifugation, the clarified cell lysate was supplemented with 20 mM imidazole, and incubated with Ni-NTA beads (GE Healthcare). The Ni-NTA bead-bound CSF-1R protein was eluted using 25 mM HEPES, pH 7.0, 150 mM NaCl and 200 mM imidazole, and was subsequently supplemented with 10 mM DTT after elution. […]
(§2) The inhibition by sulfatinib was determined by the measurement of kinase activities following the ADP-Glo assay kit (Promega)[6],[44],[45]. […] Following the addition of detection reagent to convert the generated ADP to ATP, the luminescence was detected by a plate reader (Perkin Elmer). Samples were run in triplicate and the IC50 values were calculated by log[Inhibitor] versus kinase activity ratio in GraphPad Prism 8.0.

FGFR1 = biological target: T2, FGFR1 (Homo sapiens, UniProt P11362); test: Kinase inhibition assay (ADP-Glo), FGFR1; type: biochemical; conditions: wild-type kinase domain
T2 construct: FGFR1 (residues 458–765); 6×His (PreScission-cleavable) (N, cleaved yes); made in house; host or cells: E. coli BL21 Rosetta
Description: (§3) FGFRs were prepared as previously described[6],[34],[44],[45]. Briefly, FGFR1 (residues 458–765), FGFR2 (residues 458–768), FGFR3 (residues 450–758) as well as FGFR4 (residues 445–753), and their mutants, FGFR1^C584S, FGFR1^V561M, FGFR2^V564I, FGFR2^V564F and FGFR3^V555M, were cloned into a modified pET28a vector in frame with an N-terminal PreScission-cleavable 6×His tag and expressed in E. coli BL21 Rosetta cells. For crystallization, FGFR1^C584S was co-expressed with untagged YOPH to induce non-phosphorylated proteins. The harvested cell pellets were lysed in a buffer containing 20 mM Tris-HCl, pH 8.0, 500 mM NaCl, 20 mM imidazole and 0.5 mM TCEP, and FGFRs were purified over Ni-NTA resin followed by enzymatic digestion with PreScission for 6×His-tag cleavage and further purified by anion exchange chromatography (GE Healthcare). For crystallization, FGFR1^C584S was further purified by gel filtration chromatography (GE Healthcare). […]
as §2

FGFR4 [4] = biological target: T3, FGFR4 (Homo sapiens, UniProt P22455); test: Kinase inhibition assay (ADP-Glo), FGFR4; type: biochemical
T3 construct: FGFR4 (residues 445–753); 6×His (PreScission-cleavable) (N, cleaved yes); made in house; host or cells: E. coli BL21 Rosetta
Description: as §3, §2

FGFR2^V564I = biological target: T4, FGFR2^V564I (Homo sapiens, UniProt P21802, V564I); test: Kinase inhibition assay (ADP-Glo), FGFR2 V564I gatekeeper mutant; type: biochemical
T4 construct: FGFR2 (residues 458–768); 6×His (PreScission-cleavable) (N, cleaved yes); made in house; host or cells: E. coli BL21 Rosetta
Description: as §3, §2

FGFR1^V561M = biological target: T5, FGFR1^V561M (Homo sapiens, UniProt P11362, V561M); test: Kinase inhibition assay (ADP-Glo), FGFR1 V561M gatekeeper mutant; type: biochemical
T5 construct: FGFR1 (residues 458–765); 6×His (PreScission-cleavable) (N, cleaved yes); made in house; host or cells: E. coli BL21 Rosetta
Description: as §3, §2

FGFR3 [5] = biological target: T6, FGFR3 (Homo sapiens, UniProt P22607); test: Kinase inhibition assay (ADP-Glo), FGFR3; type: biochemical; conditions: wild-type kinase domain
T6 construct: FGFR3 (residues 450–758); 6×His (PreScission-cleavable) (N, cleaved yes); made in house; host or cells: E. coli BL21 Rosetta
Description: as §3, §2

FGFR2 = biological target: T7, FGFR2 (Homo sapiens, UniProt P21802); test: Kinase inhibition assay (ADP-Glo), FGFR2; type: biochemical; conditions: wild-type kinase domain
T7 construct: FGFR2 (residues 458–768); 6×His (PreScission-cleavable) (N, cleaved yes); made in house; host or cells: E. coli BL21 Rosetta
Description: as §3, §2

FGFR3^V555M = biological target: T8, FGFR3^V555M (Homo sapiens, UniProt P22607, V555M); test: Kinase inhibition assay (ADP-Glo), FGFR3 V555M gatekeeper mutant; type: biochemical
T8 construct: FGFR3 (residues 450–758); 6×His (PreScission-cleavable) (N, cleaved yes); made in house; host or cells: E. coli BL21 Rosetta
Description: as §3, §2

CSF-1R [6] = biological target: T9, CSF-1R (Homo sapiens, UniProt P07333, C667T/C830S/C907T/DEL696-741); test: Kinase inhibition assay (ADP-Glo), CSF-1R; type: biochemical; conditions: wild-type kinase domain
T9 construct: Wild-type CSF-1R (residues 542–919, △696–741, C677T, C830S, C907T); 6×His (N); made in house; host or cells: SF9 insect cells (baculovirus)
T9 sequence (P07333 with tags, fused parts or gaps C667T/DEL696-741/C830S/C907T): T1 sequence (P07333 with tags, fused parts or gaps T663I/C667T/DEL696-741/C830S/C907T) with I122T
Description: as §1, §2

FGFR2^V564F = biological target: T10, FGFR2^V564F (Homo sapiens, UniProt P21802, V564F); test: Kinase inhibition assay (ADP-Glo), FGFR2 V564F gatekeeper mutant; type: biochemical
T10 construct: FGFR2 (residues 458–768); 6×His (PreScission-cleavable) (N, cleaved yes); made in house; host or cells: E. coli BL21 Rosetta
Description: as §3, §2

T3 sequence (P22455 445-753): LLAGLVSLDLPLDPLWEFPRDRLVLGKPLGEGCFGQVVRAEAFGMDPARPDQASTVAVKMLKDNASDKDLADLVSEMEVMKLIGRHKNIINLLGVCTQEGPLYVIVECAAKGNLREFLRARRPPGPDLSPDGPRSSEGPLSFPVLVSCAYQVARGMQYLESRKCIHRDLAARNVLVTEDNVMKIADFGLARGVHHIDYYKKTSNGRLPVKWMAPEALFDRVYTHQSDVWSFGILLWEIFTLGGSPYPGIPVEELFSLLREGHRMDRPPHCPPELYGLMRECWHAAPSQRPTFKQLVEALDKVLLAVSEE
T4 sequence (P21802 458-768 V564I): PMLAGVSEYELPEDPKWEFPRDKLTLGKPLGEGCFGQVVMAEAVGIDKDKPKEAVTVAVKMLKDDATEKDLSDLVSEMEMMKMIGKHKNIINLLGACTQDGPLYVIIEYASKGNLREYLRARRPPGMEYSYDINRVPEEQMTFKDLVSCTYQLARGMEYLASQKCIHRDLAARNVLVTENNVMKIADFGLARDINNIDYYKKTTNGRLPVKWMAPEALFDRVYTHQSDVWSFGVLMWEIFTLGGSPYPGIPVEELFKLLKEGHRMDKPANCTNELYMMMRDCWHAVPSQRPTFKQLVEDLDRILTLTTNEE
T10 sequence (P21802 458-768 V564F): as the sequence (P21802 458-768 V564I) above, with I107F counted along it
T5 sequence (P11362 458-765 V561M): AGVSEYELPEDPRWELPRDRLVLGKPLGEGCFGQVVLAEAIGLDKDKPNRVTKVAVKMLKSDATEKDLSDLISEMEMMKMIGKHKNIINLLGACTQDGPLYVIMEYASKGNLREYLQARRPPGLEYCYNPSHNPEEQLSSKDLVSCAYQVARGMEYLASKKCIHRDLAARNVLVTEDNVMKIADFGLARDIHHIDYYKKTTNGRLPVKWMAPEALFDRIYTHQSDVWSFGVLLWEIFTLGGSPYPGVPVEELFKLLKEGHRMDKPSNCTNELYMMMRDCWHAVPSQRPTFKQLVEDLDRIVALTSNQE
T8 sequence (P22607 450-758 V555M): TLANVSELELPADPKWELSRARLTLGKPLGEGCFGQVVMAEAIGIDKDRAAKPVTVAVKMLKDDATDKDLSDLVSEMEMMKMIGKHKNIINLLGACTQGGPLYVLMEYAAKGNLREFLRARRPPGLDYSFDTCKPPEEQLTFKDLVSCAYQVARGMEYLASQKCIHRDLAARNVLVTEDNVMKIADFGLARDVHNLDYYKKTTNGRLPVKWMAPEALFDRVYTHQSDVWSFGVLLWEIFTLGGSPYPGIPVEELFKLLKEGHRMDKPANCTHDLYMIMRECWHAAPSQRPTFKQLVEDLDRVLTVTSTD
T7 sequence (P21802 458-768): as the sequence (P21802 458-768 V564I) above, with I107V counted along it
T2 sequence (P11362 458-765): as the sequence (P11362 458-765 V561M) above, with M104V counted along it
T6 sequence (P22607 450-758): as the sequence (P22607 450-758 V555M) above, with M106V counted along it

SMILES | IC50 (FGFR4 [1]) [nM] | IC50 (FGFR3 [2]) [nM] | IC50 (CSF-1R [3]) [nM] | IC50 (CSF-1R^T663I) [nM] | IC50 (FGFR1) [nM] | reduction in efficacy for FGFR4 (FGFR4 [4]; FGFR4 IC50 compared with FGFR1) | IC50 (FGFR4 [4]; wild-type kinase domain, ADP-Glo) [nM] | IC50 (FGFR2^V564I; ADP-Glo, read-out: Kinase inhibitory activity FGFR2^V564I IC50) [nM] | IC50 (FGFR2^V564I; bound stated, read-out: IC50 for FGFR2^V564I) [nM] | IC50 (FGFR1^V561M; ADP-Glo, read-out: Kinase inhibitory activity FGFR1^V561M IC50) [nM] | IC50 (FGFR1^V561M; bound stated, read-out: IC50 for FGFR1^V561M) [nM] | IC50 (FGFR3 [5]) [nM] | IC50 (FGFR2) [nM] | IC50 (FGFR3^V555M; ADP-Glo, read-out: Kinase inhibitory activity FGFR3^V555M IC50) [nM] | IC50 (FGFR3^V555M; bound stated, read-out: IC50 for FGFR3^V555M) [nM] | IC50 (CSF-1R [6]) [nM] | IC50 (FGFR2^V564F; ADP-Glo, read-out: Kinase inhibitory activity FGFR2^V564F IC50) [nM] | IC50 (FGFR2^V564F; bound stated, read-out: IC50 for FGFR2^V564F) [nM]
C=CC(=O)N1CCN(CCCn2c(=O)c(-c3c(Cl)c(OC)cc(OC)c3Cl)cc3cnc(NC)nc32)CC1 [PRN1371, 8-(3-(4-Acryloylpiperazin-1-yl)propyl)-6-(2,6-dichloro-3,5-dimethoxyphenyl)-2-(methylamino)pyrido[2,3-d]pyrimidin-7(8H)-one] | 19.3 | […] | 8.1 | – | – | – | – | – | – | – | – | – | – | – | – | – | – | –
Cc1cc2cc(Oc3ccnc(Nc4cccc(CS(=O)(=O)NCCN(C)C)c4)n3)ccc2[nH]1 [sulfatinib] | – | – | – | 4 | 34 | approximately 26 fold | 889 | 3490 | > 2000 | > 5000 | > 2000 | 28 | 21 | > 5000 | > 2000 | 5 | 2970 | > 2000
